Measured values reported in publication PMC10708028, “Target Screen of Anti-Hyperuricemia Compounds from Cortex Fraxini In Vivo Based on ABCG2 and Bioaffinity Ultrafiltration Mass Spectrometry” (Molecules, 2023).

Biological target: T1, ABCG2 (Homo sapiens, UniProt Q9UNQ0)
T1 construct: Recombinant ABCG2
T1 sequence (Q9UNQ0 1-655): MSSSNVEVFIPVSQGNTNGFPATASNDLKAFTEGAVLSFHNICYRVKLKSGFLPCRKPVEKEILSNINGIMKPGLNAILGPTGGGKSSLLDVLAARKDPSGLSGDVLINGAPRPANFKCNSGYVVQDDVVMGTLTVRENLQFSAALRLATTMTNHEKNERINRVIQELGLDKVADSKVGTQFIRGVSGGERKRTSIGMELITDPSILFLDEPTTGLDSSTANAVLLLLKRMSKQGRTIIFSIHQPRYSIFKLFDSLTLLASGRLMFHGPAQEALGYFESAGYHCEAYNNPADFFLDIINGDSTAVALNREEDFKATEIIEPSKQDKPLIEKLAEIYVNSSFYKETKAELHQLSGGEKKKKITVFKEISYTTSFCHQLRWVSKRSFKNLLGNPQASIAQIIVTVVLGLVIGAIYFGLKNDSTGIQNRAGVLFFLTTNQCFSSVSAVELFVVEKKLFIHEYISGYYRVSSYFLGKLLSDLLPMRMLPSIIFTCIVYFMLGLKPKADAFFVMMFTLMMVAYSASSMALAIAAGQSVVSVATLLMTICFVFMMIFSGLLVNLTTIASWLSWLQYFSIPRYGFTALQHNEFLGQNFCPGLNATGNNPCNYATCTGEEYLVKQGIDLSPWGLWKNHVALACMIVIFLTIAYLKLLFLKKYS
Format: binding

SMILES: COc1cc2ccc(=O)oc2c(O[C@@H]2O[C@H](CO)[C@@H](O)[C@H](O)[C@H]2O)c1O [fraxin]
- Kd: 141 µM
